Test results taken from patent publication US20210267948A1, “TREATMENT OF CANCER” (CITY OF HOPE, priority 2017, published 2021).

Legend:
PARP1 = PARP1 protein expression by Western blot; type: cell-based, human; conditions: HCC1937 cells irrespective of BRCA1 status, 4 h
Procedure: FIGS. 3A-3B. […] (FIG. 3A): the effect of COH29 on PARP1 activity in isogenic pairs of breast (HCC1937) and ovarian (UWB1.289) cancer cell lines expressing mutant or wt BRCA1 (wt=+BRCA1 in each case) was assessed in duplicate using procedures described in Materials & Methods; FIG. 3B: the effect of COH29 on PARP1 protein expression in the isogenic HCC1937/HCC1937+BRCA1 cell lines was assessed by Western blot analysis using anti-human PARP1 antibody as the primary antibody. Loading control is β-actin.
For subcellular fractionation, cells were trypsinized and washed with cold PBS solution twice. […] Following centrifugation at 1,000 g for 5 min, the supernatant was collected (i.e., cytoplasmic fraction) and pellets were washed with the same buffer twice. The washed samples were extracted for 40 min on ice with fractionation buffer containing 0.5% NP-40 for nuclear fraction. All the samples were sonicated and clarified by centrifugation at 16,000 g for 15 min. Protein concentrations of all fractions were determined with Bio-Rad Protein Assay (Bio-Rad Laboratories, Hercules, Calif.). Immunoblotting was performed as described previously (21,22). Briefly, equal amounts of boiled protein samples were subjected to SDS-polyacrylamide gel electrophoresis (PAGE) and transferred onto nitrocellulose membranes (Bio-Rad Laboratories). Membranes were blocked for 1 hour in 3% BSA in Tris buffered saline containing 0.05% Tween 20 (TBST) and incubated for 1 hour with primary antibody (1:500 or 1:1000) diluted in TBST containing 1% BSA. After two washes with TBST, membranes were incubated for 1 hour with horseradish peroxidase-conjugated secondary Abs (1:3000 dilution) at room temperature. The immunoblots were visualized on film with the West-Q chemi-luminescence kit (GenDEPOT, Barker, Tex.).

UWB1.289 = test: MTT cytotoxicity assay, UWB1.289; type: cell-based, human; conditions: UWB1.289, BRCA1-defective, 72 h; read-out: IC50, mean ± SEM
Procedure: (§1) The MTT cytotoxicity assay was performed by incubating with MTT and monitoring the MTT formazan formed by viable cells with a microplate reader at a wavelength of 560 nm; the survival ratio was determined using the formula: (Atest−Ablank)/(Acontrol−Ablank)×100%. The cytotoxicity was determined in 96-well plates using the semiautomatic fluorescence-based Digital Imaging Microscopy System (DIMSCAN). DIMSCAN uses digital imaging microscopy to quantify viable cells, which selectively accumulate FDA (fluorescein diacetate; Alfa Aesar, Ward Hill, Mass.). DIMSCAN is capable of measuring cytotoxicity over a 4 log dynamic range by quantifying total fluorescence per well (which is proportional to the number of viable cells) after elimination of the background fluorescence by digital thresholding and eosin Y (Mallinckrodt Baker, Center Valley, Pa.) quenching. Cells were seeded into 96-well plates in 100 μL of complete medium at 2,000 to 5,000 cells per well, depending on cell line growth rate. After overnight incubation, test compound was added to each well at various concentrations in 50 μL of culture medium. […] Total fluorescence per well was then measured using DIMSCAN, and the results were expressed as the ratio of the fluorescence in treated wells to the fluorescence in untreated wells (survival fraction).

KB-Gem = test: Cytotoxicity assay, KB-Gem; type: cell-based, human; conditions: gemcitabine-resistant, read-out: IC50, mean ± SEM
Procedure: as §1

OV90 = test: MTT cytotoxicity assay, OV90; type: cell-based, human; conditions: OV90, wild-type BRCA1, 72 h; read-out: IC50, mean ± SEM
Procedure: as §1

KB-7D = test: Cytotoxicity assay, KB-7D; type: cell-based, human; conditions: cisplatin-resistant, read-out: IC50, mean ± SEM
Procedure: as §1

SKBR3 = test: Cytotoxicity assay, SKBR3; type: cell-based, human; conditions: SKBR3, ER− PR(−) HER2+
Procedure: as §1

UWB1.289+BRCA1 = test: Cytotoxicity assay, UWB1.289+BRCA1; type: cell-based, human; conditions: UWB1.289 + BRCA1 (WT), 72 h; read-out: IC50, mean ± SEM
Procedure: as §1

OVCAR-4 = test: Cytotoxicity assay, OVCAR-4; type: cell-based, human; conditions: read-out: IC50, mean ± SEM
Procedure: as §1

HCC1937 = test: Cytotoxicity assay, HCC1937; type: cell-based, human; conditions: HCC1937, BRCA1 mutant, triple negative, 72 h
Procedure: All cell lines were acquired from the American Type Culture Collection (Manassas, Va., USA). Cells were maintained in RPMI 1640 medium (Mediatech) with 10% fetal bovine serum, 2 mM glutamine, and 100 U of penicillin and 100 μg of streptomycin per ml of medium (Sigma) at 37° C. in 5% CO2. To isolate HCC1937+BRCA1 cells, parental HCC1937 cells were transfected with pcDNA3.1 plasmid expressing full-length BRCA1 cDNA. Stable transfectant clones were selected and used for drug sensitivity assays. […] The restoration of BRCA1 expression in the puromycin-resistant cDNA/transfectant cells was evaluated by Western blot analysis.
The MTT cytotoxicity assay was performed by incubating with MTT and monitoring the MTT formazan formed by viable cells with a microplate reader at a wavelength of 560 nm; the survival ratio was determined using the formula: (Atest−Ablank)/(Acontrol−Ablank)×100%. The cytotoxicity was determined in 96-well plates using the semiautomatic fluorescence-based Digital Imaging Microscopy System (DIMSCAN). DIMSCAN uses digital imaging microscopy to quantify viable cells, which selectively accumulate FDA (fluorescein diacetate; Alfa Aesar, Ward Hill, Mass.). […] Total fluorescence per well was then measured using DIMSCAN, and the results were expressed as the ratio of the fluorescence in treated wells to the fluorescence in untreated wells (survival fraction).

TOV112D = test: Cytotoxicity assay, TOV112D; type: cell-based, human; conditions: read-out: IC50, mean ± SEM
Procedure: as §1

A2780-DDDP = test: Cytotoxicity assay, A2780-DDDP; type: cell-based, human; conditions: cisplatin-resistant, read-out: IC50, mean ± SEM
Procedure: as §1

OVCAR-3 = test: Cytotoxicity assay, OVCAR-3; type: cell-based, human; conditions: read-out: IC50, mean ± SEM
Procedure: as §1

HCC1937+BRCA1 = test: Cytotoxicity assay, HCC1937+BRCA1; type: cell-based, human; conditions: HCC1937 + BRCA1, triple negative, 72 h
Procedure: All cell lines were acquired from the American Type Culture Collection (Manassas, Va., USA). Cells were maintained in RPMI 1640 medium (Mediatech) with 10% fetal bovine serum, 2 mM glutamine, and 100 U of penicillin and 100 μg of streptomycin per ml of medium (Sigma) at 37° C. in 5% CO2. To isolate HCC1937+BRCA1 cells, parental HCC1937 cells were transfected with pcDNA3.1 plasmid expressing full-length BRCA1 cDNA. Stable transfectant clones were selected and used for drug sensitivity assays. For stable transfection, cells at 30-40% confluence were incubated overnight with […] of plasmid DNA, using FUGENE® 6 transfectin reagent (Roche Molecular Biochemical, Monza, Italy) according to the manufacturer's instructions. Cells were then selected in puromycin (1 μg/ml) (Invitrogen Life Technologies, La Jolla, Calif., USA). After 20 to 30 days, viable puromycin-resistant colonies from HCC1937 transfections were expanded and screened. The clones that stably expressed puromycin and retained growth potential were assayed for BRCA1 expression by Western blot analysis. The restoration of BRCA1 expression in the puromycin-resistant cDNA/transfectant cells was evaluated by Western blot analysis.
The MTT cytotoxicity assay was performed by incubating with MTT and monitoring the MTT formazan formed by viable cells with a microplate reader at a wavelength of 560 nm; the survival ratio was determined using the formula: (Atest−Ablank)/(Acontrol−Ablank)×100%. The cytotoxicity was determined in 96-well plates using the semiautomatic fluorescence-based Digital Imaging Microscopy System (DIMSCAN). DIMSCAN uses digital imaging microscopy to quantify viable cells, which selectively accumulate FDA (fluorescein diacetate; Alfa Aesar, Ward Hill, Mass.). DIMSCAN is capable of measuring cytotoxicity over a 4 log dynamic range by quantifying total fluorescence per well (which is proportional to the number of viable cells) after elimination of the background fluorescence by digital thresholding and eosin Y (Mallinckrodt Baker, Center Valley, Pa.) quenching. […]

[1] = system: wild-type zebrafish embryos; test: Zebrafish genotoxicity assay; type: in vivo, Danio rerio; conditions: HU 0-50 mM
Procedure: The PARP1 activity was determined using the PARP1 Chemiluminescent Assay Kit (BPS Bioscience, San Diego) according to the manufacturer's protocol. Briefly, the ribosylation reaction was carried out with activated DNA in PARP assay buffer using test inhibitor, positive control, substrate control and blank reactions, for 1 hour at 25° C. Detection was by streptavidin-HRP with chemiluminescent substrate A and B read in a luminometer. NZebrafish (Danio rerio) were obtained from zebrafish Core facility of Taipei Medical University and maintained at 28° C. on a 14 h light/10 h dark cycle. Embryos were incubated at 28° C. and different developmental stages were determined as described (25). Wild-type embryos were treated with different concentrations of HU (0, 5, 10, 20, 50 mM) or COH29 (0, 10, 20, 50, 100 μM) at 20 hpf to evaluate the mutagenic effect. Fifteen embryos were treated per well condition. […] Embryos were observed using an Olympus IX70-FLA inverted fluorescence microscope. Images were taken using SPOT digital camera system (Diagnostic Instruments, Sterling Heights, Mich., USA) and assembled with Image) software (26).
To assess the genotoxicity of COH29, wild-type zebrafish embryos were treated from 1 to 7 dpf (day post-fertilization) with a range of doses of COH29 (0-100 μM) and compared to embryos similarly treated with HU (0-50 mM) which is known to cause developmental defects.

For C[C@]1(c2nc3c(C(N)=O)cccc3[nH]2)CCCN1 [ABT-888, reference compound], the PARP1 protein level (PARP1) was “significant reduction”.

N.N.[Cl][Pt][Cl] [Cisplatin] showed an IC50 (UWB1.289) of 1430 ± 870 nM, an IC50 (KB-Gem) of 380 ± 30 nM and an IC50 (OV90) of 1570 ± 290 nM. The IC50 (KB-7D) was 7500 ± 300 nM, the IC50 (SKBR3) was 990 ± 240 nM and the IC50 (UWB1.289+BRCA1) was 7400 ± 2020 nM. The IC50 (OVCAR-4) was 2250 ± 250 nM, the IC50 (HCC1937) was 2460 ± 110 nM and the IC50 (TOV112D) was 1320 ± 200 nM. The IC50 (A2780-DDDP) was 5020 ± 1180 nM, the IC50 (OVCAR-3) was 1640 ± 40 nM and the IC50 (HCC1937+BRCA1) was 2930 ± 550 nM.

With NC(=O)NO [HU, hydroxyurea, reference compound] the “number of mutant embryos” value [1] was “dose-dependent increase” and the developmental defects ([1]; embryos treated 1 to 7 dpf, COH29 0-100 μM) was “caused defects in eyes and heart by 4 dpf”.
